Data: US20240059691A1 (KALVISTA PHARMACEUTICALS LIMITED, priority 2020, published 2024)

Columns and labels:
Assay type in all cases: biochemical
[1] = biological target: Human Factor XIIa (Homo sapiens (Human), UniProt P00748); assay: Determination of FXIIa inhibition (fluorogenic substrate H-DPro-Phe-Arg-AFC, IC50 assay); settings: substrate H-DPro-Phe-Arg-AFC at Km, 25° C.; class scale A-G
Method in brief: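 IC50 derived from % remaining activity, taken as the linear fluorescence rate over a 5 min read at 25° C. Substrate H-DPro-Phe-Arg-AFC was used at its Km (Michaelis-Menten) with human FXIIa and serial compound dilutions, 25° C.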

[2] = biological target: KLK1 (Homo sapiens (Human), UniProt P06870); assay: Determination of related protease inhibition: KLK1 (fluorogenic substrate at Km); settings: 25° C.
Sequence of KLK1 (P06870 25-262): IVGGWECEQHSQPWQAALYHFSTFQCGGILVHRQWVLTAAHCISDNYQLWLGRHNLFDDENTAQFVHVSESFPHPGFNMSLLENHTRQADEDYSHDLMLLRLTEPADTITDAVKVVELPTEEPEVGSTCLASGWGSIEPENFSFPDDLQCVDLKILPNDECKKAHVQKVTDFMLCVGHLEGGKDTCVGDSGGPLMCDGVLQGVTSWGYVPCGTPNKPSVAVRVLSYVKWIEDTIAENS
Method: (§1) Determination of Related Protease Inhibition
(§2) In vitro inhibition of related proteases was determined using an ([…] assay based on standard literature methods (see e.g. Shori et al., Biochem. Pharmacol., 1992, 43, 1209; Bouckaert et al., European Journal of Medicinal Chemistry 110 (2016) 181). Human serine protease enzymes Plasma Kallikrein, KLK1, FXa, Plasmin, Thrombin and Trypsin were assayed for enzymatic activity using an appropriate fluorogenic substrate at Km concentration, FXIa at fixed substrate concentration of 100 μM, and various concentrations of the test compound. Protease activity was measured by monitoring the accumulation of liberated fluorescence from the substrate over […]. The linear rate of fluorescence increase per minute was expressed as percentage (%) activity. IC50 values were calculated as the concentration of inhibitor giving 50% inhibition of the uninhibited enzyme activity (100%).

[3] = biological target: FXa (Homo sapiens (Human), UniProt P00742); assay: Determination of related protease inhibition: FXa (fluorogenic substrate at Km); settings: 25° C.
Sequence of FXa (P00742 235-488): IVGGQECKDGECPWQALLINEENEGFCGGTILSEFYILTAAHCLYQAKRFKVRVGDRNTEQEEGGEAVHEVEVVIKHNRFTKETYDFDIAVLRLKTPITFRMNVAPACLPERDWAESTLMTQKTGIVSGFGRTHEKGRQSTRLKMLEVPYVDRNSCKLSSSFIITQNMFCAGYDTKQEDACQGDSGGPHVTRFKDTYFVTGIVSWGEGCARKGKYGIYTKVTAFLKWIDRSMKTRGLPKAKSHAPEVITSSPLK
Sequence of FXa (P00742 41-179 partner): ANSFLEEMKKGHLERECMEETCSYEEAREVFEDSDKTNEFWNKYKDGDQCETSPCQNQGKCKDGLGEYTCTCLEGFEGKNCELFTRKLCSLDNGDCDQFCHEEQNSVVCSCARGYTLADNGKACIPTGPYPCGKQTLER
Method: as §1, §2

[4] = biological target: Plasma Kallikrein (Homo sapiens (Human), UniProt P03952); assay: Determination of related protease inhibition: Plasma Kallikrein (fluorogenic substrate at Km); settings: 25° C., read-out: IC50 (human PKal)
Sequence of Plasma Kallikrein (P03952 391-638): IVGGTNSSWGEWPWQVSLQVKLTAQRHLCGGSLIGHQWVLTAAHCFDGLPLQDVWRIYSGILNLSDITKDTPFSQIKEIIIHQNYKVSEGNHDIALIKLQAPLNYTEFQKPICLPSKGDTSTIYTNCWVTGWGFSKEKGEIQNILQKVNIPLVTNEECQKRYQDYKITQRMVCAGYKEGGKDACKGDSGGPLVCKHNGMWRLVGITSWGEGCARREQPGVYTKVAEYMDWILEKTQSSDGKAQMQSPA
Sequence of Plasma Kallikrein (P03952 20-390 partner): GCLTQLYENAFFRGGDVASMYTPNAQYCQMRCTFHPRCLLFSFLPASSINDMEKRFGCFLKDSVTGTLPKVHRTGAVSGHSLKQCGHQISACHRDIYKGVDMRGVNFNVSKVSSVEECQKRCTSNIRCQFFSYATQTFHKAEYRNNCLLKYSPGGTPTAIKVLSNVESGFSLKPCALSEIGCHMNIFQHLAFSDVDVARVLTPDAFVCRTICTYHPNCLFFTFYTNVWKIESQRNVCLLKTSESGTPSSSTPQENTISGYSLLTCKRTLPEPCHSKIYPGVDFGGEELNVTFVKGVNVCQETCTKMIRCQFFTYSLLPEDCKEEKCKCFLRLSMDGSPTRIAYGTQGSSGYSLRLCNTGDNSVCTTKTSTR
Method in brief: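 IC50 derived as the concentration halving uninhibited activity, from linear fluorescence increase per minute monitored 5 min at 25 °C. Each human protease was run with its fluorogenic substrate at Km concentration across a range of test compound concentrations.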

Sequence of Human Factor XIIa (P00748 373-615): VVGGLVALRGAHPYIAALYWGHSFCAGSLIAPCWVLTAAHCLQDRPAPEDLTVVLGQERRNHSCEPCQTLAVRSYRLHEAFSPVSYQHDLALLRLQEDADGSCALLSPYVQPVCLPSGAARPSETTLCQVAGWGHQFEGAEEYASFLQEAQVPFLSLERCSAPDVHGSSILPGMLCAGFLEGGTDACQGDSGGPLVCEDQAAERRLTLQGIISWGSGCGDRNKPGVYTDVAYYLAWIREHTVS

Compound	IC50 [1]	IC50 [2]	IC50 [3]	IC50 [4]
CC(C)c1cc(N2CCn3c(nnc3C(F)(F)F)C2)ncc1CNc1cccc2c(N)nccc12 [Example 1308, N5-((4-isopropyl-6-(3-(trifluoromethyl)-5,6-dihydro-[1,2,4]triazolo[4,3-a]pyrazin-7(8H)-yl)pyridin-3-yl)methyl)isoquinoline-1,5-diamine]	1 to 3 µM	3 to 10 µM	–	–
CC(C)N1C[C@H]2C[C@@H]1CN2Cc1cc(CNc2cccc3c(N)nccc23)ccn1 [Example 4295, 5-N-[(2-{[(1R,4R)-5-isopropyl-2,5-diazabicyclo[2.2.1]heptan-2-yl]methyl}pyridin-4-yl)methyl]isoquinoline-1,5-diamine]	10 to 40 µM	10 to 40 µM	–	–
FC(F)(F)c1nnc2n1CCN(c1ccc(CNc3cnc4[nH]cc(Cl)c4c3)cn1)C2 [Example 1289, 3-chloro-N-((6-(3-(trifluoromethyl)-5,6-dihydro-[1,2,4]triazolo[4,3-a]pyrazin-7(8H)-yl)pyridin-3-yl)methyl)-1H-pyrrolo[2,3-b]pyridin-5-amine]	–	> 40 µM	> 40 µM	–
Nc1nccc2c(NCc3cnc(N4CCn5c(nnc5C(F)(F)F)C4)nc3)cccc12 [Example 9003, N5-((2-(3-(trifluoromethyl)-5,6-dihydro-[1,2,4]triazolo[4,3-a]pyrazin-7(8H)-yl)pyrimidin-5-yl)methyl)isoquinoline-1,5-diamine]	1 to 3 µM	3 to 10 µM	–	–
Cc1cc(N2CCn3c(nnc3C(F)(F)F)C2C)ncc1CNc1cccc2c(N)nccc12 (racemic) [Example 1303, N5-((4-Methyl-6-(8-methyl-3-(trifluoromethyl)-5,6-dihydro-[1,2,4]triazolo[4,3-a]pyrazin-7(8H)-yl)pyridin-3-yl)methyl)isoquinoline-1,5-diamine]	0.01 to 0.1 µM	> 4 µM	–	–
Nc1nccc2c(NCc3cnc(N4CCn5c(nnc5C(F)(F)F)C4)c(C(F)(F)F)c3)cccc12 [Example 1306, N5-((5-(trifluoromethyl)-6-(3-(trifluoromethyl)-5,6-dihydro-[1,2,4]triazolo[4,3-a]pyrazin-7(8H)-yl)pyridin-3-yl)methyl)isoquinoline-1,5-diamine]	–	1 to 3 µM	–	–
Cc1cc(N2CCn3c(nnc3C(F)(F)F)C2C)ncc1CNc1cccc2c(N)nccc12 (single isomer, unassigned) [Example 1304, (R*)-N5-((4-methyl-6-(8-methyl-3-(trifluoromethyl)-5,6-dihydro-[1,2,4]triazolo[4,3-a]pyrazin-7(8H)-yl)pyridin-3-yl)methyl)isoquinoline-1,5-diamine]	3 to 10 µM	3 to 10 µM	–	–
Cc1cc(N2CCn3c(nnc3C(F)(F)F)C2)cnc1CNc1cccc2c(N)nccc12 [Example 9005, N5-((3-Methyl-5-(3-(trifluoromethyl)-5,6-dihydro-[1,2,4]triazolo[4,3-a]pyrazin-7(8H)-yl)pyridin-2-yl)methyl)isoquinoline-1,5-diamine]	0.01 to 0.1 µM	> 4 µM	–	–
Nc1nccc2c(NCc3ccc(N4CCn5c(nnc5C(F)(F)F)C4)nn3)cccc12 [Example 9004, N5-((6-(3-(Trifluoromethyl)-5,6-dihydro-[1,2,4]triazolo[4,3-a]pyrazin-7(8H)-yl)pyridazin-3-yl)methyl)isoquinoline-1,5-diamine]	0.3 to 1 µM	3 to 10 µM	–	–
CCc1cc(N2CCn3c(nnc3C(F)(F)F)C2)ncc1CNc1cccc2c(N)nccc12 [Example 1309, N5-((4-ethyl-6-(3-(trifluoromethyl)-5,6-dihydro-[1,2,4]triazolo[4,3-a]pyrazin-7(8H)-yl)pyridin-3-yl)methyl)isoquinoline-1,5-diamine]	0.01 to 0.1 µM	> 4 µM	–	–
CC1Cn2c(nnc2C(F)(F)F)CN1c1ccc(CNc2cccc3c(N)nccc23)cn1 (stereo not drawn) [Example 1311, N5-((6-(6-Methyl-3-(trifluoromethyl)-5,6-dihydro-[1,2,4]triazolo[4,3-a]pyrazin-7(8H)-yl)pyridin-3-yl)methyl)isoquinoline-1,5-diamine]	0.01 to 0.1 µM	3 to 10 µM	–	–
Cc1cc(NCc2ccc(N3CCn4c(nnc4C(F)(F)F)C3)nc2)c2cc(Cl)[nH]c2n1 [Example 1293, 2-chloro-6-methyl-N-((6-(3-(trifluoromethyl)-5,6-dihydro-[1,2,4]triazolo[4,3-a]pyrazin-7(8H)-yl)pyridin-3-yl)methyl)-1H-pyrrolo[2,3-b]pyridin-4-amine]	–	> 40 µM	> 40 µM	–
FC(F)(F)c1nnc2n1CCN(c1ccc(CNc3ccn4ccnc4c3)cn1)C2 [Example 1288, N-((6-(3-(trifluoromethyl)-5,6-dihydro-[1,2,4]triazolo[4,3-a]pyrazin-7(8H)-yl)pyridin-3-yl)methyl)imidazo[1,2-a]pyridin-7-amine]	–	> 100 µM	> 40 µM	–
Nc1nccc2c(NCc3cnc(N4CCn5c(nnc5C(F)(F)F)C4)cn3)cccc12 [Example 9002, N5-((5-(3-(trifluoromethyl)-5,6-dihydro-[1,2,4]triazolo[4,3-a]pyrazin-7(8H)-yl)pyrazin-2-yl)methyl)isoquinoline-1,5-diamine]	0.3 to 1 µM	3 to 10 µM	–	–
Nc1nccc2c(NCc3cnc(N4CCn5c(nnc5C(F)(F)F)C4)cc3C3CC3)cccc12 [Example 1307, N5-((4-cyclopropyl-6-(3-(trifluoromethyl)-5,6-dihydro-[1,2,4]triazolo[4,3-a]pyrazin-7(8H)-yl)pyridin-3-yl)methyl)isoquinoline-1,5-diamine]	0.3 to 1 µM	3 to 10 µM	–	–
Cc1nnc2n1CCN(c1ccc(CNc3cccc4c(N)nccc34)cn1)CC2 [Example 1310, N5-((6-(3-methyl-5,6,8,9-tetrahydro-7H-[1,2,4]triazolo[4,3-d][1,4]diazepin-7-yl)pyridin-3-yl)methyl)isoquinoline-1,5-diamine]	1 to 3 µM	1 to 3 µM	–	–
Cc1cc(N2CCn3c(nnc3C(F)(F)F)C2)ncc1CNc1ccnc2[nH]c(Cl)cc12 [Example 1313, 2-Chloro-N-((4-methyl-6-(3-(trifluoromethyl)-5,6-dihydro-[1,2,4]triazolo[4,3-a]pyrazin-7(8H)-yl)pyridin-3-yl)methyl)-1H-pyrrolo[2,3-b]pyridin-4-amine]	0.1 to 0.3 µM	> 4 µM	–	–
Nc1nccc2c(NCc3ccnc(NCCC(=O)N4CCCC4)c3)cccc12 [Example 4302, 3-[(4-{[(1-aminoisoquinolin-5-yl)amino]methyl}pyridin-2-yl)amino]-1-(pyrrolidin-1-yl)propan-1-one]	1 to 3 µM	–	–	10 to 40 µM
Nc1nccc2c(NCc3ccc(N4Cc5nccn5CC4CO)nc3)cccc12 (stereo not drawn) [Example 1137, (7-(5-(((1-aminoisoquinolin-5-yl)amino)methyl)pyridin-2-yl)-5,6,7,8-tetrahydroimidazo[1,2-a]pyrazin-6-yl)methanol]	1 to 3 µM	–	–	> 40 µM
CN1CCC(CNc2ccc(CNc3cc(C(F)(F)F)cc4[nH]c(Cl)cc34)cn2)CC1 [Example 1262, 2-chloro-N-((6-(((1-methylpiperidin-4-yl)methyl)amino)pyridin-3-yl)methyl)-6-(trifluoromethyl)-1H-indol-4-amine]	1 to 3 µM	–	–	3 to 10 µM
CNc1cc(NCc2ccc(NCC3CCN(C)CC3)nc2)ccn1 [Example 1219, N2-Methyl-N4-((6-(((1-methylpiperidin-4-yl)methyl)amino)pyridin-3-yl)methyl)pyridine-2,4-diamine]	3 to 10 µM	–	–	> 100 µM
Nc1nccc2c(NCc3cnc(OCC4CCn5ccnc5C4)nc3)cccc12 (stereo not drawn) [Example 1042, 5-N-[(2-{5H,6H,7H,8H-imidazo[1,2-a]pyridin-7-ylmethoxy}pyrimidin-5-yl)methyl]isoquinoline-1,5-diamine]	0.1 to 0.3 µM	–	–	> 4 µM
Nc1ncc(Cl)c2cc(NCc3cccc(CC(=O)N4CCn5ccnc5C4)c3)ccc12 [Example 5442, 2-(3-(((1-amino-4-chloroisoquinolin-6-yl)amino)methyl)phenyl)-1-(5,6-dihydroimidazo[1,2-a]pyrazin-7(8H)-yl)ethan-1-one]	10 to 40 µM	–	–	> 40 µM
CN1CCC(CNc2ccc(CNc3cc(F)c4c(N)nccc4c3)cn2)CC1 [Example 1245, 8-fluoro-N6-((6-(((1-methylpiperidin-4-yl)methyl)amino)pyridin-3-yl)methyl)isoquinoline-1,6-diamine]	3 to 10 µM	–	–	3 to 10 µM
CN1CCC(CNc2ccc(CNc3ccc4c[nH]c(=O)cc4c3)cn2)CC1 [Example 1201, 6-(((6-(((1-methylpiperidin-4-yl)methyl)amino)pyridin-3-yl)methyl)amino)isoquinolin-3(2H)-one]	40 to 100 µM	–	–	> 40 µM
CN1CCC(CNc2ccc(CNc3ccc4c(N)ncc(F)c4c3)cn2)CC1 [Example 1195, 4-fluoro-N6-((6-(((1-methylpiperidin-4-yl)methyl)amino)pyridin-3-yl)methyl)isoquinoline-1,6-diamine]	0.1 to 0.3 µM	–	–	3 to 10 µM
